# Where a name gives a salt, the structure may show the parent alone.
# Key:
# Type in all cases: biochemical
# [1] = molecular target: T1, Human VAP-1 (Homo sapiens, UniProt Q16853); assay: VAP-1 inhibition assay (Amplex Red continuous fluorescence assay); settings: 30 min pre-incubation at 37° C.; substrate benzylamine; read-out: Human VAP-1 IC50
# T1 sequence (Q16853 1-763): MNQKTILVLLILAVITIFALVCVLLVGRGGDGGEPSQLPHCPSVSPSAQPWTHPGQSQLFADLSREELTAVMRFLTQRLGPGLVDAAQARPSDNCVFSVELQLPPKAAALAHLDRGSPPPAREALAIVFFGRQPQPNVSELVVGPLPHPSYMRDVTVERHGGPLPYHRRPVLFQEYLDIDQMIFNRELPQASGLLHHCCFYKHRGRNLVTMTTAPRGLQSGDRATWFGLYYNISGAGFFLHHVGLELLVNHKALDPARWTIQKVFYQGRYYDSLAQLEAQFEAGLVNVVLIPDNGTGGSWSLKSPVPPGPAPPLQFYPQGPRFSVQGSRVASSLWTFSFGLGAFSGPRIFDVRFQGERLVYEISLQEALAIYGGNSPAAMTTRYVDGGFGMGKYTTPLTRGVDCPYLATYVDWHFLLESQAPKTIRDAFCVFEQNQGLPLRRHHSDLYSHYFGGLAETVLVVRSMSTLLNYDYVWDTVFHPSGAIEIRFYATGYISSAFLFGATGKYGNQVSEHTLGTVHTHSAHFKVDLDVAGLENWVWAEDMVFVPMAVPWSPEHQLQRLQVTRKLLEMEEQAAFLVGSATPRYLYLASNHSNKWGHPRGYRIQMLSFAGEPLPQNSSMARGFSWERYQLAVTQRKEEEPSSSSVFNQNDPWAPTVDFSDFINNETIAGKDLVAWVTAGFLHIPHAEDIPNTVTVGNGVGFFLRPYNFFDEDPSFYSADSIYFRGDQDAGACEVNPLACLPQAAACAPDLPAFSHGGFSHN
# Protocol: (§1) VAP-1, DAO, MAO-A, MAO-B, and HRP activity and inhibition thereof was assessed by means of a continuous fluorescence assay. The Amplex Red Hydrogen Peroxide/Peroxidase Assay (ThermoFisher) was optimized for detecting amine oxidase (AO) activity. In an enzyme-coupled reaction, the H2O2 generated by AO reacts 1:1 with Amplex Red reagent to produce fluorescent product resorufin.
# (§2) Assays were typically setup in black 384-well plates using automated liquid handling as follows. VAP-1/MAO assay buffer contains […] sodium phosphate, pH 7.4; DAO assay buffer contains 50 mM HEPES, pH 7.5; HRP assay buffer contains 100 mM CHES, 1 mM MgCl2, 50 mM NaCl, 0.05% BSA, pH 9.0. Inhibitors were serially diluted in DMSO and used to setup 2× mixtures with AO in the aforementioned buffer. After 30 min pre-incubation at 37° C. (VAP-1, HRP) or room temp (DAO, MAO), the reaction was initiated by adding a 2× mix of Amplex Red, HRP (coupling enzyme), and substrate (benzylamine, histamine, tyramine, benzylamine, H2O2, for VAP-1, DAO, MAO-A, MAO-B, and HR, respectively) in the same buffer. Reaction progress curve data were typically collected for 5 min using excitation/emission wavelengths of 510 nm/565 nm on FLIPR-Tetra plate readers (Molecular Devices Inc). Reaction rates were calculated from progress curve slopes typically over 60-150 sec. Dose response curves (rate vs. log inhibitor concentration) were typically fit to a 4-parameter logistic function to extract IC50 values.
# [2] = molecular target: T2, Human MAO-A (Homo sapiens, UniProt P21397); assay: MAO-A inhibition (Amplex Red continuous fluorescence assay); settings: 30 min pre-incubation at room temp; substrate tyramine; read-out: Human MAO-A IC50
# T2 sequence (P21397 1-527): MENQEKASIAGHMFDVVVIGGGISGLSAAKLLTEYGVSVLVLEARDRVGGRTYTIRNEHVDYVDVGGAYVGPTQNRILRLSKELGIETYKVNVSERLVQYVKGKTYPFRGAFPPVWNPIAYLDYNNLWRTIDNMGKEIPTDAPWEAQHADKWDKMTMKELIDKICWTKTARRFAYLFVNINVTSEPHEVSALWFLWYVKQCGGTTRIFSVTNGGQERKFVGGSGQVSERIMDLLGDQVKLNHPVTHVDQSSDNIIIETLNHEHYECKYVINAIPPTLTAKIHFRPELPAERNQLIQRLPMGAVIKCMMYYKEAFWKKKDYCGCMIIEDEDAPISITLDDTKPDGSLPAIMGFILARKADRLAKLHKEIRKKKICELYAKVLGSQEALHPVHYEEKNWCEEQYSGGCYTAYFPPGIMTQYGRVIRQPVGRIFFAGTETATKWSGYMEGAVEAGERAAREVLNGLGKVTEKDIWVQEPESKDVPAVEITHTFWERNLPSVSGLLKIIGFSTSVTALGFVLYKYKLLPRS
# Protocol: as §1, §2
# [3] = molecular target: T3, Human DAO (Homo sapiens, UniProt P19801); assay: DAO inhibition (Amplex Red continuous fluorescence assay); settings: 30 min pre-incubation at room temp; substrate histamine; read-out: Human DAO IC50
# T3 sequence (P19801 20-751): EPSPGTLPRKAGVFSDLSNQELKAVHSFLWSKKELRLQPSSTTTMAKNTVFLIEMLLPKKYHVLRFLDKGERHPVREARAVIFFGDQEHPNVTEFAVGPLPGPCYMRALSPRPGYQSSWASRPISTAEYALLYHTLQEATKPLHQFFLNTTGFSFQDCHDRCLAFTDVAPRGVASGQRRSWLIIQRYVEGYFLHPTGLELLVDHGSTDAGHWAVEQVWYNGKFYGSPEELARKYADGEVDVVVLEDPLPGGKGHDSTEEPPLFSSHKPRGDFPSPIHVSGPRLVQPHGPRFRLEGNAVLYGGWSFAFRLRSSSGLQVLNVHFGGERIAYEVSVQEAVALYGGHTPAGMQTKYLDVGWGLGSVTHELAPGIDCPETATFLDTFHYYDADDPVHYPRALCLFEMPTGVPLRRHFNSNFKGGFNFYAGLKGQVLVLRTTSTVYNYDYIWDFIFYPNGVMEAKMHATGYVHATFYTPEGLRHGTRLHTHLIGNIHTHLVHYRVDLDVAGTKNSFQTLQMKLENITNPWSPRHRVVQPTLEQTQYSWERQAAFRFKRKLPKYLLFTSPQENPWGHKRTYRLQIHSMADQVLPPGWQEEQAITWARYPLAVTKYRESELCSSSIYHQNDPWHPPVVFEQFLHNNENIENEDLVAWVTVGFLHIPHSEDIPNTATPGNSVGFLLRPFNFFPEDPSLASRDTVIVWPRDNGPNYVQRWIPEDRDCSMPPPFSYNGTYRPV
# Protocol: as §1, §2
# [4] = molecular target: T4, Human MAO-B (Homo sapiens, UniProt P27338); assay: MAO-B inhibition (Amplex Red continuous fluorescence assay); settings: 30 min pre-incubation at room temp; substrate benzylamine; read-out: Human MAO-B IC50
# T4 sequence (P27338 1-520): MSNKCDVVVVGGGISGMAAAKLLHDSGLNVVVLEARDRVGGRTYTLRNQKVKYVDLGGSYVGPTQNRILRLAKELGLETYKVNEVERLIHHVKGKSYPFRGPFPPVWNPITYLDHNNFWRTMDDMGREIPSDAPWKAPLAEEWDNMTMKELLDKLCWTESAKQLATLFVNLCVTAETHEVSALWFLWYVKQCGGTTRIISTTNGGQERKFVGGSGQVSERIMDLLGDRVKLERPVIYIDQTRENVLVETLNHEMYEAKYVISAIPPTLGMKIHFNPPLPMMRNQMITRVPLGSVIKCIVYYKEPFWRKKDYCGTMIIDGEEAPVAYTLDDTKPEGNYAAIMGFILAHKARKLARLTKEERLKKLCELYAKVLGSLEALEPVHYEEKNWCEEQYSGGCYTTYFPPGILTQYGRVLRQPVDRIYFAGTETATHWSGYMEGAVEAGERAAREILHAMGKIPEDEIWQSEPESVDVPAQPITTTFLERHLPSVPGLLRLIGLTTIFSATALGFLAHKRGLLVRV
# Protocol: as §1, §2
smiles,measurement,setting,value
"NC/C(=C\F)COc1ccc(-c2ncccn2)cc1 [Compound 37, (E)-3-fluoro-2-((4-(pyrimidin-2-yl)phenoxy)methyl)prop-2-en-1-amine hydrochloride]",IC50,[1],< 3 µM
same,IC50,[2],3 to 10 µM
same,IC50,[3],< 3 µM
same,IC50,[4],< 3 µM
"NC/C(=C/F)COc1ccc(-c2ncccn2)cc1 [Compound 38, (Z)-3-fluoro-2-((4-(pyrimidin-2-yl)phenoxy)methyl)prop-2-en-1-amine hydrochloride]",IC50,[1],< 3 µM
same,IC50,[2],< 3 µM
same,IC50,[3],< 3 µM
same,IC50,[4],< 3 µM
"Cn1cnc(-c2ccc(OC/C(=C/F)CN)cc2)c1 [Compound 39, (E)-3-fluoro-2-((4-(1-methyl-1H-imidazol-4-yl)phenoxy)methyl)prop-2-en-1-amine]",IC50,[1],< 3 µM
same,IC50,[2],> 10 µM
same,IC50,[3],< 3 µM
same,IC50,[4],< 3 µM
"NC/C(=C\F)COc1ccc(-c2cnc[nH]2)cc1 [Compound 40, (E)-2-((4-(1H-imidazol-5-yl)phenoxy)methyl)-3-fluoroprop-2-en-1-amine]",IC50,[1],< 3 µM
same,IC50,[2],3 to 10 µM
same,IC50,[3],< 3 µM
same,IC50,[4],< 3 µM
"NC/C(=C\F)COCc1cccs1 [Compound 41, (E)-3-fluoro-2-((thiophen-2-ylmethoxy)methyl)prop-2-en-1-amine]",IC50,[1],< 3 µM
same,IC50,[2],< 3 µM
same,IC50,[3],> 10 µM
same,IC50,[4],< 3 µM
"NC/C(=C\F)COc1ccc(-c2ccn[nH]2)cc1 [Compound 42, (E)-2-((4-(1H-pyrazol-5-yl)phenoxy)methyl)-3-fluoroprop-2-en-1-amine hydrochloride]",IC50,[1],< 3 µM
same,IC50,[2],< 3 µM
same,IC50,[3],< 3 µM
same,IC50,[4],< 3 µM
"NC/C(=C\F)COc1ccc(-c2ncon2)cc1 [Compound 43, (E)-2-((4-(1,2,4-oxadiazol-3-yl)phenoxy)methyl)-3-fluoroprop-2-en-1-amine hydrochloride]",IC50,[1],< 3 µM
same,IC50,[2],3 to 10 µM
same,IC50,[3],< 3 µM
same,IC50,[4],< 3 µM
"NC/C(=C/F)COc1ccc(-c2ncon2)cc1 [Compound 44, (Z)-2-((4-(1,2,4-OXADIAZOL-3-YL)PHENOXY)METHYL)-3-FLUOROPROP-2-EN-1-AMINE HYDROCHLORIDE]",IC50,[1],< 3 µM
same,IC50,[2],< 3 µM
same,IC50,[3],< 3 µM
same,IC50,[4],< 3 µM

# Reference: patent US20210238192A1, “VASCULAR ADHESION PROTEIN-1 (VAP-1) MODULATORS AND THERAPEUTIC USES THEREOF” (Blade Therapeutics, Inc., priority 2018, published 2021)
